Test results taken from patent US20230365537A1, “POLO LIKE KINASE 4 INHIBITORS” (ORIC Pharmaceuticals, Inc., priority 2021, published 2023).
pIC50: −log10 of the molar value.

Columns and labels:
[1] = target: human recombinant Aurora B (Homo sapiens (Human), UniProt Q96GD4); assay: Aurora B Kinase Biochemical Assay (ADP-Glo); conditions: ratio of Aurora B IC50 to PLK4 IC50 (selectivity)
In short: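 Recombinant human Aurora B (20 nM in pH 7.5 HEPES buffer with MgCl2, EGTA, DTT, Brij-35, BSA) preincubated with compound 15 min at RT. ADP formed quantified by ADP-Glo luminescence after ATP depletion (40 min) and detection (30 min). IC50 from four-parameter non-linear regression.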

[2] = target: human recombinant Aurora A (Homo sapiens (Human), UniProt O14965); assay: Aurora A Kinase Biochemical Assay (ADP-Glo); conditions: ratio of Aurora A IC50 to PLK4 IC50 (selectivity)
human recombinant PLK4 = human recombinant PLK4 (Homo sapiens (Human), UniProt O00444); assay: PLK4 Biochemical Assay (ADP-Glo); conditions: 0.5 nM PLK4, 8.0 µM ATP, 4.7 µM MBP, 6 hours at RT
In short: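 Recombinant human PLK4 (added at 1.0 nM) was preincubated 15 min at RT with compound in 50 mM HEPES pH 7.5, 10 mM MgCl2, 1 mM EGTA, 1 mM DTT, 0.01% Brij-35, 0.01% BSA. ADP formed was detected by ADP-Glo luminescence (40 min ATP depletion, 30 min detection). IC50 came from a four-parameter fit.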

human recombinant PLK4, sequence (O00444 whole entry): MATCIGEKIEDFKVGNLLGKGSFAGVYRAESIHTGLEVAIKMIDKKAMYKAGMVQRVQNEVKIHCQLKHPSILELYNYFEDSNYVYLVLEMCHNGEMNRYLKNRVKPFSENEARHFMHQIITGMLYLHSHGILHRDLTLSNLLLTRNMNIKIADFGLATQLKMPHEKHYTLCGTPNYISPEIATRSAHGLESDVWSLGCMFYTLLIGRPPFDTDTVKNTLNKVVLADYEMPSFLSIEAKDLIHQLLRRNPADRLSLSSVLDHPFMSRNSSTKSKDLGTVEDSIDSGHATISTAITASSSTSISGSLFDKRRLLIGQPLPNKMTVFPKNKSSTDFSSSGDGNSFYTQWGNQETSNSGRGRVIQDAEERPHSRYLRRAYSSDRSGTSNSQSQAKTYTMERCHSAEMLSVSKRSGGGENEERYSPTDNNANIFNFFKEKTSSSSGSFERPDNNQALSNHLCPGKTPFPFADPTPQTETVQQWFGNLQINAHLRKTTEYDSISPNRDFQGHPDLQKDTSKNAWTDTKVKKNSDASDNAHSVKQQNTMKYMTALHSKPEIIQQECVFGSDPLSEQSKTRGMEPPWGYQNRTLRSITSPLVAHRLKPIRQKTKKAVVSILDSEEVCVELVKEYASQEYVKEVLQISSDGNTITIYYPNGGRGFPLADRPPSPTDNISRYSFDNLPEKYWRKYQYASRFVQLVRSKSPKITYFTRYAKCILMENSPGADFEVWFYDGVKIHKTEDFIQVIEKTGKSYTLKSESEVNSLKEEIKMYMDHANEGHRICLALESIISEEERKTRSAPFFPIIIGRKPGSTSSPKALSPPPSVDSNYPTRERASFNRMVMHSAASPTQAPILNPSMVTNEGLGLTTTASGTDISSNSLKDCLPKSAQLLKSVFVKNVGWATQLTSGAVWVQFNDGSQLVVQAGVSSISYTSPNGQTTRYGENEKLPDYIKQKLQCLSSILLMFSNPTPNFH
human recombinant Aurora A, sequence (O14965 whole entry): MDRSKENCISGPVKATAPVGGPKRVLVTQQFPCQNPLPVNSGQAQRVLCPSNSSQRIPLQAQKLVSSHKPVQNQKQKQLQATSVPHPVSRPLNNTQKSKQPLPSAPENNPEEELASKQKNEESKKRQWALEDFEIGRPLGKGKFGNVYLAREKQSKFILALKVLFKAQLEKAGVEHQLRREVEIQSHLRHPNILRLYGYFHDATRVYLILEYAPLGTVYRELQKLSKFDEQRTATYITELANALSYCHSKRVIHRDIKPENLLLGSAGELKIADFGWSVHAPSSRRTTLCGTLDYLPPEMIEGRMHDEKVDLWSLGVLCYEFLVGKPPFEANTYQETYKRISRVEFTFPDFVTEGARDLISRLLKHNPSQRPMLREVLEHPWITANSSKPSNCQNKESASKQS
human recombinant Aurora B, sequence (Q96GD4 whole entry): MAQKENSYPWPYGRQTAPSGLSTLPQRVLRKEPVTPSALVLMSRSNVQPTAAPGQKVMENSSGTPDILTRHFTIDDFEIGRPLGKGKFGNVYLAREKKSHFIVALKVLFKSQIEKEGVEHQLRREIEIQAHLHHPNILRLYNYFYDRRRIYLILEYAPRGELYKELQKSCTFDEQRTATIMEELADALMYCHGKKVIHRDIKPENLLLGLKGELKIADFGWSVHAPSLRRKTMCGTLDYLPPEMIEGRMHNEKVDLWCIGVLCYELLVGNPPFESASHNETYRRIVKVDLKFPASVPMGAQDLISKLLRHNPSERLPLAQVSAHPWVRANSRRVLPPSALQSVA

Row | Compound | [Aurora B IC50 (nM)]/[PLK4 IC50 (nM)] [1] | [Aurora A IC50 (nM)]/[PLK4 IC50 (nM)] [2] | pIC50 (human recombinant PLK4)
1 | COc1cnc(C)nc1Nc1n[nH]c2cc([C@@H]3C[C@@]34C(=O)Nc3cc(F)ccc34)ccc12 [Example 131, (1R,2S)-6′-fluoro-2-{3-[(5-methoxy-2-methylpyrimidin-4-yl)amino]-1H-indazol-6-yl}spiro[cyclopropane-1,3′-indol]-2′(1′H)-one] | 40.8516 | 105.7084 | 7.27
2 | COc1ccc2c(c1)[C@]1(C[C@H]1c1ccc3c(Nc4nc(C)ncc4OC(C)C)n[nH]c3c1)C(=O)N2 [Example 136, (1R,2S)-5′-methoxy-2-[3-({2-methyl-5-[(propan-2-yl)oxy]pyrimidin-4-yl}amino)-1H-indazol-6-yl]spiro[cyclopropane-1,3′-indol]-2′(1′H)-one] | 979.4132 | 2573.3401 | 7.71
3 | COc1cnc(C)nc1Nc1n[nH]c2cc([C@@H]3C[C@@]34C(=O)Nc3ccc(OC(F)(F)F)cc34)ccc12 [Example 138, (1R,2S)-2-{3-[(5-methoxy-2-methylpyrimidin-4yl)amino]-1H-indazol-6-yl}-5′-(trifluoromethoxy)spiro[cyclopropane-1,3′-indol]-2′(1′H)-one] | 36 | 70 | 7.56
4 | COc1cnc(C)nc1Nc1n[nH]c2c(F)c([C@@H]3C[C@@]34C(=O)Nc3ccc(F)cc34)ccc12 [Example 142, (1R,2R)-5′-fluoro-2-{7-fluoro-3-[(5-methoxy-2-methylpyrimidin-4-yl)amino]-1H-indazol-6-yl}spiro[cyclopropane-1,3′-indol]-2′(1′H)-one] | 26.308 | 13.818 | 7.67
5 | Cc1ncc(OC(F)F)c(Nc2n[nH]c3c(F)c([C@@H]4C[C@@]45C(=O)Nc4ccc(F)cc45)ccc23)n1 [Example 143, (1R,2R)-2-(3-{[5-(difluoromethoxy)-2-methylpyrimidin-4-yl]amino}-7-fluoro-1H-indazol-6-yl)-5′-fluorospiro[cyclopropane-1,3′-indol]-2′(1′H)-one] | 40.607 | 14.621 | 7.07
6 | COc1ccc2c(c1)[C@]1(C[C@H]1c1ccc3c(Nc4cc(C(C)C)nc(C)n4)n[nH]c3c1)C(=O)N2 [Example 151, (1R,2S)-5′-methoxy-2-(3-{[2-methyl-6-(propan-2-yl)pyrimidin-4-yl]amino}-1H-indazol-6-yl)spiro[cyclopropane-1,3′-indol]-2′(1′H)-one] | 96.3153 | 61.2440 | 8.01
7 | COc1ccc2c(c1)[C@]1(C[C@H]1c1ccc3c(Nc4nc(C)ncc4SC)n[nH]c3c1)C(=O)N2 [Example 162, (1R,2S)-5′-methoxy-2-(3-{[2-methyl-5-(methylsulfanyl)pyrimidin-4-yl]amino}-1H-indazol-6-yl)spiro[cyclopropane-1,3′-indol]-2′(1′H)-one] | 105.2895 | 648.6776 | 8.08
8 | COc1ccc2c(c1)[C@]1(C[C@H]1c1ccc3c(Nc4cc(C(=O)N(C)C)cnc4OC)n[nH]c3c1)C(=O)N2 [Example 181, 6-methoxy-5-({6-[(1R,2S)-5′-methoxy-2′-oxo-1′,2′-dihydrospiro[cyclopropane-1,3′-indol]-2-yl]-1H-indazol-3-yl}amino)-N,N-dimethylpyridine-3-carboxamide] | 3693.2418 | 2415.5227 | 8.12

Further lines, results first:

Row | [Aurora B IC50 (nM)]/[PLK4 IC50 (nM)] [1] | [Aurora A IC50 (nM)]/[PLK4 IC50 (nM)] [2] | pIC50 (human recombinant PLK4) | Compound
9 | 11.87 | 11.1709 | 7.14 | COc1cnc(C)nc1Nc1n[nH]c2cc([C@@H]3C[C@@]34C(=O)N(C)c3ccccc34)ccc12 [Example 122, (1R,2S)-2-{3-[(5-methoxy-2-methylpyrimidin-4-yl)amino]-1H-indezol-6-yl}-1′-methylspiro[cyclopropane-1,3′-indol]-2′(1′H)-one]
10 | 35.9 | 38.03 | 7.87 | COc1cnc(C)nc1Nc1n[nH]c2cc([C@@H]3C[C@@]34C(=O)Nc3ccccc34)ccc12 [Example 124, (1R,2S)-2-{3-[(5-methoxy-2-methylpyrimidin-4-yl)amino]-1H-indazol-6-yl}spiro[cyclopropane-1,3′-indol]-2′(1′H)-one]
11 | 22.7686 | 22.77 | 5.66 | COc1cnc(C)nc1Nc1n[nH]c2cc([C@@H]3C[C@]34C(=O)Nc3ccc(C)cc34)ccc12 [Example 127, (1S,2S)-2-{3-[(5-methoxy-2-methylpyrimidin-4-yl)amino]-1H-indazol-6-yl}-5′-methylspiro[cyclopropane-1,3′-indol]-2′(1′H)-one]
12 | 17.1349 | 18.1054 | 7.46 | COc1cnc(C)nc1Nc1n[nH]c2cc([C@@H]3C[C@@]34C(=O)Nc3cccc(F)c34)ccc12 [Example 129, (1R,2S)-4′-fluoro-2-{3-[(5-methoxy-2-methylpyrimidin-4-yl)amino]-1H-indazol-6-yl}spiro[cyclopropane-1,3′-indol]-2′(1′H)-one]
13 | 60.1890 | 58.4811 | 6.22 | COc1cnc(C)nc1Nc1n[nH]c2cc([C@@H]3C[C@]34C(=O)Nc3cccc(F)c34)ccc12 [Example 130, (1S,2S)-4′-fluoro-2-{3-[(5-methoxy-2-methylpyrimidin-4-yl)amino]-1H-indazol-6-yl}spiro[cyclopropane-1,3′-indol]-2′(1′H)-one]
14 | 62.6112 | 28.3312 | 7.15 | Cc1ncc(OC(F)F)c(Nc2n[nH]c3cc([C@@H]4C[C@@]45C(=O)Nc4ccc(F)cc45)ccc23)n1 [Example 135, (1R,2S)-2-(3-{[5-(difluoromethoxy)-2-methylpyrimidin-4-yl]amino}-1H-indazol-6-yl)-5′-fluorospiro[cyclopropane-1,3′-indol]-2′(1′H)-one]
15 | 72 | 62 | 7.01 | COc1cnc(C)nc1Nc1n[nH]c2cc([C@@H]3C[C@@]34C(=O)Nc3ccc(C(F)(F)F)cc34)ccc12 [Example 137, (1R,2S)-2-{3-[(5-methoxy-2-methylpyrimidin-4-yl)amino]-1H-indazol-6-yl}-5′-(trifluoromethyl)spiro[cyclopropane-1,3′-indol]-2′(1′H)-one]
16 | 9.6 | 7.4 | 5.50 | COc1cnc(C)nc1Nc1n[nH]c2cc([C@@H]3C[C@]34C(=O)Nc3ccc(OC(F)(F)F)cc34)ccc12 [Example 139, (1S,2S)-2-{3-[(5-methoxy-2-methylpyrimidin-4-yl)amino]-1H-indazol-6-yl}-5′-(trifluoromethoxy)spiro[cyclopropane-1,3′-indol]-2′(1′H)-one]
17 | 891.0891 | 327.4181 | 7.88 | COc1ccc2c(c1)[C@]1(C[C@H]1c1ccc3c(Nc4nc(C5COC5)ncc4OC(F)F)n[nH]c3c1)C(=O)N2 [Example 141, (1R,2S)-2-(3-{[5-(difluoromethoxy)-2-(oxetan-3-yl)pyrimidin-4-yl]amino}-1H-indazol-6-yl)-5′-methoxyspiro[cyclopropane-1,3′-indol]-2′(1′H)-one]
18 | 107.8116 | 502.7949 | 8.15 | CCc1cnc(C)nc1Nc1n[nH]c2cc([C@@H]3C[C@@]34C(=O)Nc3ccc(OC)cc34)ccc12 [Example 152, (1R,2S)-2-{3-[(5-ethyl-2-methylpyrimidin-4-yl)amino]-1H-indazol-6-yl}-5′-methoxyspiro[cyclopropane-1,3′-indol]-2′(1′H)-one]
19 | 51.7286 | 704.9238 | 8.07 | COc1ccc2c(c1)[C@]1(C[C@H]1c1ccc3c(Nc4ncc(C(F)(F)F)cc4OC)n[nH]c3c1)C(=O)N2 [Example 158, (1R,2S)-5′-methoxy-2-(3-{[3-methoxy-5-(trifluoromethyl)pyridin-2-yl]amino}-1H-indazol-6-yl)spiro[cyclopropane-1,3′-indol]-2′(1′H)-one]
